PubChem BioAssay (NCI)
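The concentration for 50% growth inhibition is given as GI50. TGI marks complete inhibition of growth.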

Assays:
Test in all cases: NCI tumour cell line growth inhibition, 384-well format; in the data active = GI50 below about 0.43 µM; inactive = the rest
DU-145 prostate = test system: DU-145 prostate
COLO 205 colon = test system: COLO 205 colon
UACC-62 melanoma = test system: UACC-62 melanoma
TK-10 renal = test system: TK-10 renal
UACC-257 melanoma = test system: UACC-257 melanoma
UO-31 renal = test system: UO-31 renal
HL-60(TB) leukemia = test system: HL-60(TB) leukemia
NCI-H322M lung = test system: NCI-H322M lung
SW-620 colon = test system: SW-620 colon
SN12C renal = test system: SN12C renal
HOP-92 NSCLC = test system: HOP-92 NSCLC
LOX IMVI melanoma = test system: LOX IMVI melanoma
BT-549 breast = test system: BT-549 breast

C[C@H](NC(=O)CCC(F)(F)F)C(=O)N[C@@H]1C(=O)N(CCO)c2ncccc2-c2ccccc21
inactive: GI50 (DU-145 prostate) > 100 µM | GI50 (COLO 205 colon) > 100 µM | GI50 (UACC-62 melanoma) > 100 µM | GI50 (TK-10 renal) > 100 µM | GI50 (UACC-257 melanoma) > 100 µM | GI50 (UO-31 renal) > 100 µM | GI50 (HL-60(TB) leukemia) 54.5 µM | GI50 (NCI-H322M lung) > 100 µM | GI50 (SW-620 colon) 87.1 µM | GI50 (SN12C renal) > 100 µM | GI50 (HOP-92 NSCLC) > 100 µM | GI50 (LOX IMVI melanoma) 43.3 µM | GI50 (BT-549 breast) > 100 µM
> 100 µM: TGI (DU-145 prostate) | TGI (COLO 205 colon) | TGI (UACC-62 melanoma) | TGI (TK-10 renal) | TGI (UACC-257 melanoma) | TGI (UO-31 renal) | TGI (HL-60(TB) leukemia) | TGI (NCI-H322M lung) | TGI (SW-620 colon) | TGI (SN12C renal) | TGI (HOP-92 NSCLC) | TGI (LOX IMVI melanoma) | TGI (BT-549 breast)
